Assay results from patent US11339171B2, “MDM2 inhibitors” (Gan & Lee Pharmaceuticals, priority 2017, dated 2022).

Tests used:
MDM2 = biological target: T1, MDM2 (Homo sapiens, UniProt Q00987); assay: Inhibition test of MDM2-P53 (GST-MDM2, Biotin-P53, Anti-GST-Tb, SA-XL665); format: binding
T1 construct: made in house
Method in brief: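 Compounds, serially diluted 5-fold (twelve concentrations), were shaken for 90 min at 25° C with a mix of GST-MDM2 (4 nM final), Biotin-P53, anti-GST-Tb and SA-XL665. Buffer: 1×PBS, 0.1% BSA, 5 mM DTT, 1 mM AEBSF; signal read on a microplate reader.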

[1] = test system: human osteosarcoma cell line SJSA-1; assay: Inhibition of proliferation of human osteosarcoma cell line SJSA-1 (DAPI staining, In Cell Analyzer); conditions: Homo sapiens, SJSA-1, 72 h, read-out: IC50 (nM), inhibitory activity on proliferation of human osteosarcoma cell line SJSA-1, SJSA-1, incubated 72 h

T1 sequence (Q00987 whole entry): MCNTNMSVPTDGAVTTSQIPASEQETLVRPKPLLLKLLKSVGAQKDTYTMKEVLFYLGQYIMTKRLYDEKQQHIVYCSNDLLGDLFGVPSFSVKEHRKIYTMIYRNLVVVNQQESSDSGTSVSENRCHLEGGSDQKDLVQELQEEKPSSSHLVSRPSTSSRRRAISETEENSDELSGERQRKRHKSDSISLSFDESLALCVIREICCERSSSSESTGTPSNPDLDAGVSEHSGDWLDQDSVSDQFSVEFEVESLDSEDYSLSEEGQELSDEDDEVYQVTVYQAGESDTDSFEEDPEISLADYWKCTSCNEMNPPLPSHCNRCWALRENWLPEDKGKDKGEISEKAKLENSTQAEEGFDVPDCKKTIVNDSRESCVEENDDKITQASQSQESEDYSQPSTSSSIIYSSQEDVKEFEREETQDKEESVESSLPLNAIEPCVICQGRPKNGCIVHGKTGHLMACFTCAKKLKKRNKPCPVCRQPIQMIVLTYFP

| SMILES | IC50 (MDM2) [nM] | IC50 [1] [nM] |
| --- | --- | --- |
| COc1nc(OCCF)ncc1-c1nc2c(n1C(C)C)[C@@]1(C(=O)Nc3cc(Cl)ccc31)N(c1cccc(Cl)c1)C2=O [Example S-171, (S)-6-chloro-5′-(3-chlorophenyl)-2′-(2-(2-fluoroethoxy)-4-methoxypyrimidin-5-yl)-3′-isopropyl-3′H-spiro[dihydroindole-3,4′-pyrrolo[3,4-d]imidazole]-2,6′(5′H)-dione] | 2.86 | 379 |
| COc1nc(C(C)C)ncc1-c1nc2c(n1C(C)C)[C@@]1(C(=O)Nc3cc(Cl)ccc31)N(c1cc(Cl)ccc1C)C2=O [Example S-172, (S)-6-chloro-5′-(5-chloro-2-methylphenyl)-3′-isopropyl-2′-(2-isopropyl-4-methoxypyrimidin-5-yl)-3′H-spiro[dihydroindole-3,4′-pyrrolo[3,4-d]imidazole]-2,6′(5′H)-dione] | 4.15 | 53.3 |
| COc1cc(OCCF)ncc1-c1nc2c(n1C(C)C)[C@@]1(C(=O)Nc3cc(Cl)ccc31)N(c1cc(Cl)cnc1C)C2=O [Example S-173, (S)-6-chloro-5′-(5-chloro-2-methylpyridin-3-yl)-2′-(6-(2-fluoroethoxy)-4-methoxypyridin-3-yl)-3′-isopropyl-3′H-spiro[dihydroindole-3,4′-pyrrolo[3,4-d]imidazole]-2,6′(5′H)-dione] | 1.39 | 217 |
| COc1nc(C2CC2)ncc1-c1nc2c(n1C(C)C)[C@@]1(C(=O)Nc3cc(Cl)ccc31)N(c1cc(F)cc(Cl)c1)C2=O [Example S-174, (S)-6-chloro-5′-(3-chloro-5-fluorophenyl)-2′-(2-cyclopropyl-4-methoxypyrimidin-5-yl)-3′-isopropyl-3′H-spiro[dihydroindole-3,4′-pyrrolo[3,4-d]imidazole]-2,6′(5′H)-dione] | 4.12 | 93.5 |
| COc1cc(OC)c(-c2nc3c(n2C(C)C)[C@@]2(C(=O)Nc4cc(Cl)ccc42)N(c2cc(F)cc(Cl)c2)C3=O)cn1 [Example S-175, (S)-6-chloro-5′-(3-chloro-5-fluorophenyl)-2′-(4,6-dimethoxypyridin-3-yl)-3′-isopropyl-3′H-spiro[dihydroindole-3,4′-pyrrolo[3,4-d]imidazole]-2,6′(5′H)-dione] | 1.96 | 49.2 |
| COc1cc(C2CC2)ncc1-c1nc2c(n1C(C)C)[C@@]1(C(=O)Nc3cc(Cl)ccc31)N(c1cc(F)cc(Cl)c1)C2=O [Example S-176, (S)-6-chloro-5′-(3-chloro-5-fluorophenyl)-2′-(6-cyclopropyl-4-methoxypyridin-3-yl)-3′-isopropyl-3′H-spiro[dihydroindole-3,4′-pyrrolo[3,4-d]imidazole]-2,6′(5′H)-dione] | 1.76 | 28.8 |
| COc1cc(OCCF)ncc1-c1nc2c(n1C(C)C)[C@@]1(C(=O)Nc3cc(Cl)ccc31)N(c1cccc(Cl)c1)C2=O [Example S-177, (S)-6-chloro-5′-(3-chlorophenyl)-2′-(6-(2-fluoroethoxy)-4-methoxypyridin-3-yl)-3′-isopropyl-3′H-spiro[dihydroindole-3,4′-pyrrolo[3,4-d]imidazole]-2,6′(5′H)-dione] | 2.37 | 421 |
| CCOc1ncc(-c2nc3c(n2C(C)C)[C@@]2(C(=O)Nc4cc(Cl)ccc42)N(c2cc(F)cc(Cl)c2)C3=O)c(OC)n1 [Example S-180, (S)-6-chloro-5′-(3-chloro-5-fluorophenyl)-2′-(2-ethoxy-4-methoxypyrimidin-5-yl)-3′-isopropyl-3′H-spiro[dihydroindole-3,4′-pyrrolo[3,4-d]imidazole]-2,6′(5′H)-dione] | 4.6 | 56.8 |
